Reference: ChEMBL document CHEMBL3044930, “Mannich base derivatives of 1,3,4-oxadiazole: synthesis and screening against Entamoeba histolytica” (Med Chem Res, 2013)

Key:
MCF7 = experiment: Cytotoxicity against Homo sapiens (human) MCF7 cells after 48 hr by MTT assay; type: cell-based; conditions: MCF7, 48 h
Entamoeba histolytica = experiment: Antiamoebic activity against Entamoeba histolytica HM-1:IMSS after 72 hr by eosin stain-based spectrophotometric analysis; type: functional, organism-based

Structure (SMILES)	IC50 (Entamoeba histolytica)	IC50 (MCF7)
S=c1oc(-c2ccncc2)nn1CN1CCN(c2ccccc2)CC1	3470 nM	
S=c1oc(-c2ccncc2)nn1CN1CCN(Cc2ccccc2)CC1	3400 nM	
S=c1oc(-c2ccncc2)nn1CN1CCN(Cc2ccc3c(c2)OCO3)CC1	3620 nM	
CN1CCN(Cn2nc(-c3ccncc3)oc2=S)CC1	5110 nM	

These reach a lower IC50 (Entamoeba histolytica). Values come first.

IC50 (Entamoeba histolytica)	Structure (SMILES)	IC50 (MCF7)
245 nM	Fc1ccc(N2CCN(Cn3nc(-c4ccncc4)oc3=S)CC2)cc1	> 250000 nM
1060 nM	COc1ccccc1N1CCN(Cn2nc(-c3ccncc3)oc2=S)CC1	> 250000 nM
327 nM	CCN1CCN(Cn2nc(-c3ccncc3)oc2=S)CC1	> 250000 nM
2570 nM	S=c1oc(-c2ccncc2)nn1CN1CCN(c2cccc(Cl)c2)CC1	
2820 nM	S=c1oc(-c2ccncc2)nn1CN1CCN(c2ccccn2)CC1	
2870 nM	FC(F)(F)c1ccccc1N1CCN(Cn2nc(-c3ccncc3)oc2=S)CC1	
